From patent publication US11761045B2, “Splice variants associated with neomorphic SF3B1 mutants” (Eisai R&D Management Co., Ltd., priority 2015, dated 2023)

Experiments:
Nalm-6 SF3B1^K700K cells = test: Splice variant levels in Nalm-6 isogenic cells by RNA-Seq; format: cell-based, human; conditions: additional compounds, FIG. 19
Experimental: (§1) To investigate the broader activity of E7107 on normal and aberrant splicing, RNA from Nalm-6 isogenic cells treated for two and six hours at 15 nM was analyzed by NanoString®. […] Normal and aberrant splicing in the isogenic cell lines was also analyzed by RNA-Seq following treatment with one of additional compounds having formulas 1 or 2. […] For the RNA-Seq analysis, cells were washed with PBS after treatment with E7107 or other test compound, and RNA was isolated using PureLink (Life Technology) as reported in the manufacturer's manual. cDNA library preparation, sequencing and raw read filtering was performed as described in Ren, S. et al. “RNA-Seq analysis of prostate cancer in the Chinese population identifies recurrent gene fusions, cancer-associated long noncoding RNAs and aberrant alternative splicings.” Cell Res 22, 806-821, doi:10.1038/cr.2012.30 (2012).

Nalm-6 SF3B1^K700E cells = test: as above; format: cell-based, human; conditions: additional compounds, FIG. 19
Experimental: as §1

SMILES	expression of WT-associated and MUT-associated RNA isoforms by RNA-Seq (Nalm-6 SF3B1^K700K cells)	expression of WT-associated and MUT-associated RNA isoforms by RNA-Seq (Nalm-6 SF3B1^K700E cells)
C/C(=C\C=C\[C@@H](C)c1ccccn1)[C@H]1OC(=O)C[C@H](O)CC[C@@](C)(O)[C@@H](OC(=O)N2CCN(C3CCCCCC3)CC2)/C=C/[C@@H]1C [Compound 1]	inhibited expression of both WT-associated and MUT-associated RNA isoforms	inhibited expression of both WT-associated and MUT-associated RNA isoforms
C/C(=C\C=C\[C@@H](C)c1ccccn1)[C@H]1OC(=O)C[C@H](O)CC[C@@](C)(O)[C@@H](OC(=O)N2CCN(C)CC2)/C=C/[C@@H]1C [Compound 2]	inhibited expression of both WT-associated and MUT-associated RNA isoforms	inhibited expression of both WT-associated and MUT-associated RNA isoforms
